# Source: US20260273072A1, “NOVEL PLK1 DEGRADATION INDUCING COMPOUND” (UPPTHERA, INC., priority 2023, published 2026)
# How the values were obtained:
# Assay type in all cases: cell-based
# NCI-H69 cell line = experiment: Cell viability assay for NCI-H69 cell line (EZ-Cytox); details: Homo sapiens, NCI-H69, 120 h; H69 cells, 5 days, 3000 nM to 0.46 nM
# How it was run: (§1)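 Human SCLC lines cultured with compound for 5 days in a CO2 incubator; viability read by EZ-Cytox absorbance at 450 nm after 3 min shaking. IC50 reported in activity bins (A: <30 nM up to E: <400 nM).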
# MRC-5 cell line = experiment: Cell viability assay for MRC-5 cell line (EZ-Cytox); details: Homo sapiens, MRC5, 120 h; MRC-5 normal cell line, 5 days, 10000 nM to 1.52 nM; read-out: Activity: IC50 value, cell viability, MRC-5 cell line (Exemplary Compounds)
# Protocol: 4. Cell Viability Assay for MRC-5 Cell Line
# (1) Culture of MRC-5 Cell Line
# The MRC-5 cell line was purchased from KCLB. Passage of cultured cells was maintained within P15.
# (2) Treatment of Compounds of the Present Invention
# Then, it was cultured in 37° C. CO2 incubator (Thermo Fisher Scientific) for 5 days.
# (3) Cytotoxicity Experiment
# CO2 incubator for 4 hours.
# PLK1 = molecular target: T1, PLK1 (Homo sapiens, UniProt P53350); experiment: Luciferase assay for PLK1 in HeLa LgBit (Plk1-HiBit KI) cell line; details: 300 nM compound, luminescence after 9 hours
# T1 construct: endogenous in cells; host or cells: HeLa LgBit (Plk1-HiBit KI): HeLa stably expressing LgBit, with a CRISPR/Cas9 knock-in of HiBit at the endogenous PLK1 locus
# T1 sequence (P53350 whole entry): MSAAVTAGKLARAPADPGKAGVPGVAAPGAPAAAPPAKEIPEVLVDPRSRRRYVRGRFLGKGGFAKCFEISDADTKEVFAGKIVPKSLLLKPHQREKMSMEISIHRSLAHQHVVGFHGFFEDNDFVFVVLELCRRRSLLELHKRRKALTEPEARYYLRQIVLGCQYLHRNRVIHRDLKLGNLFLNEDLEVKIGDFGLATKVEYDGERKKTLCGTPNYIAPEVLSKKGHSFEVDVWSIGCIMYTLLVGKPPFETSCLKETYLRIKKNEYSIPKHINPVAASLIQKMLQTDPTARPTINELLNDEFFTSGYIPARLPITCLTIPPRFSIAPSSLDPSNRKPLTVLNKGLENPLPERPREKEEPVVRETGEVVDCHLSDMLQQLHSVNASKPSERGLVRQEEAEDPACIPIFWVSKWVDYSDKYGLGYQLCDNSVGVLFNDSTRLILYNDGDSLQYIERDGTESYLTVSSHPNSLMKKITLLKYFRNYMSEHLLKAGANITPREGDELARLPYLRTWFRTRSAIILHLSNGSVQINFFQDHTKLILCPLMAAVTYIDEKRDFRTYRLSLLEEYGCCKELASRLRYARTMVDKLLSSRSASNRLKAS
# How it was run: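 HeLa LgBit cells with endogenous PLK1 C-terminally HiBit-tagged by CRISPR knock-in; released from 24 h 2 mM thymidine block, seeded, grown 18 h. Compounds at 300 nM with Endurazine substrate; luminescence (470-480 nm) tracked in real time, expressed as ratio to DMSO.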
# NCI-H526 cell line = experiment: Cell viability assay for NCI-H526 cell line (EZ-Cytox); details: Homo sapiens, NCI-H526, 120 h; H526 cells, 5 days, 3000 nM to 0.46 nM
# How it was run: as §1
Activity: ratio of the luminescence value of compound treatment group to DMSO treatment group (PLK1),SMILES,IC50 (NCI-H69 cell line) [nM],IC50 (MRC-5 cell line) [nM],IC50 (NCI-H526 cell line) [nM]
+++ (+++: <0.3),"COc1cc(C(=O)NN2CCC(CCN3CCN(c4ccc(NC5CCC(=O)NC5=O)cc4F)CC3)CC2)ccc1Nc1ncc2c(n1)N(C(C)C)CC(F)(F)C(=O)N2C (stereo not shown) [Compound 29, 4-((7,7-difluoro-9-isopropyl-5-methyl-6-oxo-6,7,8,9-tetrahydro-5H-pyrimido[4,5-b][1,4]diazepin-2-yl)amino)-N-(4-(2-(4-(4-((2,6-dioxopiperidin-3-yl)amino)-2-fluorophenyl)piperazin-1-yl)ethyl)piperidin-1-yl)-3-methoxybenzamide]",< 30,> 10000,< 30
++ (++: <0.5),"COc1cc(C(=O)NC2CCN(CCC3CCN(c4ccc(NC5CCC(=O)NC5=O)c(F)c4)CC3)CC2)c(F)cc1Nc1ncc2c(n1)N(C(C)C)CC(F)(F)C(=O)N2C (stereo not shown) [Compound 37, 4-((7,7-difluoro-9-isopropyl-5-methyl-6-oxo-6,7,8,9-tetrahydro-5H-pyrimido[4,5-b][1,4]diazepin-2-yl)amino)-N-(1-(2-(1-(4-((2,6-dioxopiperidin-3-yl)amino)-3-fluorophenyl)piperidin-4-yl)ethyl)piperidin-4-yl)-2-fluoro-5-methoxybenzamide]",< 100,> 10000,< 50
++ (++: <0.5),"COc1cc(C(=O)NC2CCN(CCN3CCN(c4cc(OC)c(NC5CCC(=O)NC5=O)cc4F)CC3)CC2)c(F)cc1Nc1ncc2c(n1)N(C1CCCC1)CC(F)(F)C(=O)N2C (stereo not shown) [Compound 49, 4-((9-cyclopentyl-7,7-difluoro-5-methyl-6-oxo-6,7,8,9-tetrahydro-5H-pyrimido[4,5-b][1,4]diazepin-2-yl)amino)-N-(1-(2-(4-(4-((2,6-dioxopiperidin-3-yl)amino)-2-fluoro-5-methoxyphenyl)piperazin-1-yl)ethyl)piperidin-4-yl)-2-fluoro-5-methoxybenz amide]",< 50,> 10000,< 30
+++ (+++: <0.3),"COc1cc(C(=O)NC2CCC(N(C)CC3CCN(c4ccc(C5CCC(=O)NC5=O)cc4C)CC3)CC2)ccc1Nc1ncc2c(n1)N(C1CCCC1)CC(F)(F)C(=O)N2C (stereo not shown) [Compound 6, 4-((9-cyclopentyl-7,7-difluoro-5-methyl-6-oxo-6,7,8,9-tetrahydro-5H-pyrimido[4,5-b][1,4]diazepin-2-yl)amino)-N-((1r,4r)-4-(((1-(4-(2,6-dioxopiperidin-3-yl)-2-methylphenyl)piperidin-4-yl)methyl)(methyl)amino)cyclohexyl)-3-methoxybenzamide]",< 50,> 10000,< 100
+++ (+++: <0.3),"COc1cc(C(=O)NC2CCC(N(C)CC3CCN(c4cnc(C5CCC(=O)NC5=O)cc4C)CC3)CC2)ccc1Nc1ncc2c(n1)N(C)CC(F)(F)C(=O)N2C (stereo not shown) [Compound 12, 4-((7,7-difluoro-5,9-dimethyl-6-oxo-6,7,8,9-tetrahydro-5H-pyrimido[4,5-b][1,4]diazepin-2-yl)amino)-N-((1r,4r)-4-(((1-(6-(2,6-dioxopiperidin-3-yl)-4-methylpyridin-3-yl)piperidin-4-yl)methyl)(methyl)amino)cyclohexyl)-3-methoxybenzamide]",< 200,> 10000,< 200
++ (++: <0.5),"COc1cc(C(=O)NC2CCN(CCN3CCN(c4cc(Cl)c(NC5CCC(=O)NC5=O)cc4F)CC3)CC2)c(F)cc1Nc1ncc2c(n1)N(C1CCCC1)CC(F)(F)C(=O)N2C (stereo not shown) [Compound 73, N(1-(2-(4-(5-chloro-4-((2,6-dioxopiperidin-3-yl)amino)-2-fluorophenyl)piperazin-1-yl)ethyl)piperidin-4-yl)-4-((9-cyclopentyl-7,7-difluoro-5-methyl-6-oxo-6,7,8,9-tetrahydro-5H-pyrimido[4,5-b][1,4]diazepin-2-yl)amino)-2-fluoro-5-methoxybenzamide]",< 100,> 10000,< 50
++ (++: <0.5),"COc1cc(C(=O)N[C@H]2[C@@H]3CN(CCC4CCN(c5ccc(NC6CCC(=O)NC6=O)cc5)CC4)C[C@@H]32)ccc1Nc1ncc2c(n1)N(C(C)C)CC(F)(F)C(=O)N2C (stereo partly drawn) [Compound 24, 4-((7,7-difluoro-9-isopropyl-5-methyl-6-oxo-6,7,8,9-tetrahydro-5H-pyrimido[4,5-b][1,4]diazepin-2-yl)amino)-N-((1R,5S,6s)-3-(2-(1-(4-((2,6-dioxopiperidin-3-yl)amino)phenyl)piperidin-4-yl)ethyl)-3-azabicyclo[3.1.0]hexan-6-yl)-3-methoxybenzamide]",< 100,> 10000,< 50
++ (++: <0.5),"COc1cc(C(=O)NC2CCN(CCN3CCN(c4ccc(NC5CCC(=O)NC5=O)c(F)c4)CC3)CC2)ccc1Nc1ncc2c(n1)N(C1CCCC1)CC(F)(F)C(=O)N2C (stereo not shown) [Compound 32, 4-((9-cyclopentyl-7,7-difluoro-5-methyl-6-oxo-6,7,8,9-tetrahydro-5H-pyrimido[4,5-b][1,4]diazepin-2-yl)amino)-N-(1-(2-(4-(4-((2,6-dioxopiperidin-3-yl)amino)-3-fluorophenyl)piperazin-1-yl)ethyl)piperidin-4-yl)-3-methoxybenzamide]",< 30,> 10000,< 30
+++ (+++: <0.3),"COc1cc(C(=O)NC2CCN(CCC3CCN(c4cc(F)c(NC5CCC(=O)NC5=O)cc4F)CC3)CC2)ccc1Nc1ncc2c(n1)N(C1CCCC1)CC(F)(F)C(=O)N2C (stereo not shown) [Compound 63, 4-((9-cyclopentyl-7,7-difluoro-5-methyl-6-oxo-6,7,8,9-tetrahydro-5H-pyrimido[4,5-b][1,4]diazepin-2-yl)amino)-N-(1-(2-(1-(4-((2,6-dioxopiperidin-3-yl)amino)-2,5-difluorophenyl)piperidin-4-yl)ethyl)piperidin-4-yl)-3-methoxybenzamide]",< 50,> 10000,< 30
+++ (+++: <0.3),"COc1cc(C(=O)NC2CCN(CCC3CCN(c4ccc(NC5CCC(=O)NC5=O)cc4F)CC3)CC2)ccc1Nc1ncc2c(n1)N(C1CCCC1)CC(F)(F)C(=O)N2C (stereo not shown) [Compound 30, 4-((9-cyclopentyl-7,7-difluoro-5-methyl-6-oxo-6,7,8,9-tetrahydro-5H-pyrimido[4,5-b][1,4]diazepin-2-yl)amino)-N-(1-(2-(1-(4-((2,6-dioxopiperidin-3-yl)amino)-2-fluorophenyl)piperidin-4-yl)ethyl)piperidin-4-yl)-3-methoxybenzamide]",< 30,> 10000,< 30
++ (++: <0.5),"CCN1CC(F)(F)C(=O)N(C)c2cnc(Nc3ccc(C(=O)NN4CCC(CCN5CCN(c6cc(OC)c(NC7CCC(=O)NC7=O)cc6F)CC5)CC4)cc3OC)nc21 (stereo not shown) [Compound 41, N(4-(2-(4-(4-((2,6-dioxopiperidin-3-yl)amino)-2-fluoro-5-methoxyphenyl)piperazin-1-yl)ethyl)piperidin-1-yl)-4-((9-ethyl-7,7-difluoro-5-methyl-6-oxo-6,7,8,9-tetrahydro-5H-pyrimido[4,5-b][1,4]diazepin-2-yl)amino)-3-methoxybenzamide]",< 30,> 10000,< 30
++ (++: <0.5),"CCN1CC(F)(F)C(=O)N(C)c2cnc(Nc3cc(F)c(C(=O)NN4CCC(CCN5CCN(c6ccc(NC7CCC(=O)NC7=O)c(F)c6)CC5)CC4)cc3OC)nc21 (stereo not shown) [Compound 35, N(4-(2-(4-(4-((2,6-dioxopiperidin-3-yl)amino)-3-fluorophenyl)piperazin-1-yl)ethyl)piperidin-1-yl)-4-((9-ethyl-7,7-difluoro-5-methyl-6-oxo-6,7,8,9-tetrahydro-5H-pyrimido[4,5-b][1,4]diazepin-2-yl)amino)-2-fluoro-5-methoxybenzamide]",< 50,> 10000,< 30
++ (++: <0.5),"COc1cc(C(=O)NN2CCC(CCN3CCN(c4cc(OC)c(NC5CCC(=O)NC5=O)cc4F)CC3)CC2)ccc1Nc1ncc2c(n1)N(C(C)C)CC(F)(F)C(=O)N2C (stereo not shown) [Compound 39, 4-((7,7-difluoro-9-isopropyl-5-methyl-6-oxo-6,7,8,9-tetrahydro-5H-pyrimido[4,5-b][1,4]diazepin-2-yl)amino)-N-(4-(2-(4-(4-((2,6-dioxopiperidin-3-yl)amino)-2-fluoro-5-methoxyphenyl)piperazin-1-yl)ethyl)piperidin-1-yl)-3-methoxybenzamide]",< 30,> 10000,< 30
